Reference: ChEMBL document CHEMBL3217536, “Structureactivity relationships of gramicidin S analogs containing (-3-pyridyl)-,-dehydroalanine residues on membrane permeability” (Medchemcomm, 2011)
≈ marks a conversion by molar mass, not a printed value. Calls of active or inactive are those of the source. No cut-off for these calls is given here. *1 amine or outer side, *2 acyl side, *3 side chain or, on linkers, in order; H or OH if unused. Where a SMILES comes first, the peptide text is derived from it. [ ]: non-standard residue; d: D form. X1 = O=C(/C(=C/c1cccnc1)N[*:1])[*:2]; X2 = O=C(/C(=C/c1ccccc1)N[*:1])[*:2]; d3Pal = N[C@H](Cc1cccnc1)C(=O)O; Orn = NCCC[C@H](N)C(=O)O

Columns and labels:
[1] = tested on: Escherichia coli; test: Antimicrobial activity against Escherichia coli K-12 W3110 after 20 hrs by liquid microdilution method in presence of PMBN; format: functional
[2] = Hemolytic activity against human erythrocytes; format: ADME, cell-based, Erythrocyte; conditions: read-out: ED50 (the source's name)
[3] = tested on: Escherichia coli; test: Antimicrobial activity against Escherichia coli K-12 W3110 after 20 hrs by liquid microdilution method; format: functional; conditions: K-12 W3110, 20 h
[4] = tested on: Escherichia coli; test: Induction of cytoplasmic membrane disruption in Escherichia coli K-12 W3110 assessed as change in potassium permeability after 30 mins; format: functional; conditions: K-12 W3110, 0.5 h, read-out: ED50 (the source's name)
[5] = tested on: Escherichia coli; test: Antimicrobial activity against Escherichia coli K-12 W3110 assessed as decrease in cell survival after 30 mins by colony counting method; format: functional; conditions: K-12 W3110, 0.5 h
[6] = tested on: Staphylococcus aureus; test: Induction of cytoplasmic membrane disruption in Staphylococcus aureus FDA 209P assessed as change in potassium permeability after 30 mins; format: functional; conditions: for EC50: 0.5 h, read-out: ED50 (the source's name)
[7] = tested on: Staphylococcus aureus; test: Antimicrobial activity against Staphylococcus aureus FDA 209P assessed as decrease in cell survival after 30 mins by colony counting method; format: functional; conditions: 0.5 h
[8] = tested on: Staphylococcus aureus; test: Antimicrobial activity against Staphylococcus aureus FDA 209P after 20 hrs by liquid microdilution method; format: functional

Compound	Activity [1]	HC50 [2] [µM]	MIC [3] [µM]	EC50 [4] [µM]	LC50 [5] [µM]	EC50 [6] [µM]	LC50 [7] [µM]	MIC [8] [µM]	Activity [6]	MIC ([1]; K-12 W3110, 20 h) [µg/mL]
CO[C@@H]1[C@@H](OC(N)=O)[C@@H](O)[C@H](Oc2ccc3c(O)c(NC(=O)c4ccc(O)c(CC=C(C)C)c4)c(=O)oc3c2C)OC1(C)C	Active									
CC(C)C[C@@H]1NC(=O)[C@H](C)NC(=O)[C@H](C(C)C)NC(=O)[C@@H]2CCCN2C(=O)/C(=C/c2cccnc2)NC(=O)[C@H](CC(C)C)NC(=O)[C@H](C)NC(=O)[C@H](C(C)C)NC(=O)[C@@H]2CCCN2C(=O)/C(=C/c2cccnc2)NC1=O (cyclo(AL[X1]PVAL[X1]PV))		50	> 114	> 100	> 100	50	50	114 (≈ 120 µg/mL)		
CC(C)C[C@@H]1NC(=O)[C@H](C)NC(=O)[C@H](C(C)C)NC(=O)[C@@H]2CCCN2C(=O)/C(=C/c2cccnc2)NC(=O)[C@H](CC(C)C)NC(=O)[C@H](CCCN)NC(=O)[C@H](C(C)C)NC(=O)[C@@H]2CCCN2C(=O)/C(=C/c2cccnc2)NC1=O (cyclo(AL[X1]PV[Orn]L[X1]PV))		50	106 (≈ 116 µg/mL)	> 100	> 100	10	10	13 (≈ 14.3 µg/mL)		
CC(C)C[C@@H]1NC(=O)[C@H](CCCN)NC(=O)[C@H](C(C)C)NC(=O)[C@@H]2CCCN2C(=O)/C(=C/c2cccnc2)NC(=O)[C@H](CC(C)C)NC(=O)[C@H](CCCN)NC(=O)[C@H](C(C)C)NC(=O)[C@@H]2CCCN2C(=O)/C(=C/c2cccnc2)NC1=O (cyclo(L[X1]PV[Orn]L[X1]PV[Orn]))	inactive	> 100	26 (≈ 29.6 µg/mL)	50	50	5	10	6 (≈ 6.84 µg/mL)	Dose-dependent effect	
CC(C)C[C@@H]1NC(=O)[C@H](CCCN)NC(=O)[C@H](C(C)C)NC(=O)[C@@H]2CCCN2C(=O)/C(=C/c2ccccc2)NC(=O)[C@H](CC(C)C)NC(=O)[C@H](CCCN)NC(=O)[C@H](C(C)C)NC(=O)[C@@H]2CCCN2C(=O)/C(=C/c2cccnc2)NC1=O (cyclo(L[X2]PV[Orn]L[X1]PV[Orn]))		20	26 (≈ 29.6 µg/mL)	50	50	5	10	3 (≈ 3.42 µg/mL)		
CC(C)C[C@@H]1NC(=O)[C@H](CCCN)NC(=O)[C@H](C(C)C)NC(=O)[C@@H]2CCCN2C(=O)/C(=C/c2ccccc2)NC(=O)[C@H](CC(C)C)NC(=O)[C@H](CCCN)NC(=O)[C@H](C(C)C)NC(=O)[C@@H]2CCCN2C(=O)/C(=C/c2ccccc2)NC1=O (cyclo(L[X2]PV[Orn]L[X2]PV[Orn]))		5	26 (≈ 29.6 µg/mL)	20	20	5	5	3 (≈ 3.41 µg/mL)		
CC(C)C[C@@H]1NC(=O)[C@H](CCCN)NC(=O)[C@H](C(C)C)NC(=O)[C@@H]2CCCN2C(=O)[C@@H](Cc2cccnc2)NC(=O)[C@H](CC(C)C)NC(=O)[C@H](CCCN)NC(=O)[C@H](C(C)C)NC(=O)[C@@H]2CCCN2C(=O)[C@@H](Cc2cccnc2)NC1=O (cyclo(L[d3Pal]PV[Orn]L[d3Pal]PV[Orn]))		> 100	50 (≈ 57.2 µg/mL)	50	100	20	20	50 (≈ 57.2 µg/mL)		
CC(C)C[C@@H]1NC(=O)[C@H](CCCN)NC(=O)[C@H](C(C)C)NC(=O)[C@@H]2CCCN2C(=O)[C@@H](Cc2ccc(O)cc2)NC(=O)[C@H](CC(C)C)NC(=O)[C@H](CCCN)NC(=O)[C@H](C(C)C)NC(=O)[C@@H]2CCCN2C(=O)[C@@H](Cc2ccc(O)cc2)NC1=O (cyclo(L[dY]PV[Orn]L[dY]PV[Orn]))		10	26 (≈ 30.5 µg/mL)					3 (≈ 3.52 µg/mL)		
CC(C)C[C@@H]1NC(=O)[C@H](CCCN)NC(=O)[C@H](C(C)C)NC(=O)[C@@H]2CCCN2C(=O)[C@@H](Cc2ccccc2)NC(=O)[C@H](CC(C)C)NC(=O)[C@H](CCCN)NC(=O)[C@H](C(C)C)NC(=O)[C@@H]2CCCN2C(=O)[C@@H](Cc2ccccc2)NC1=O [GRAMICIDIN S] (cyclo(L[dF]PV[Orn]L[dF]PV[Orn]))		5	13 (≈ 14.8 µg/mL)	20	20	2	5	3 (≈ 3.42 µg/mL)	Dose-dependent effect	4
